What was measured:
[1] = system: breast cancer stem cells (CSCs); details: inducing apoptosis along with autophagy in breast cancer stem cells; Mai T T et al. 2012; cited from earlier work
[2] = system: inflammatory cytokines (TNF-α, IL-1β, and IL-6); assay: Expression of inflammatory cytokines in mouse fed with high fat diet; assay type: in vivo; details: mouse fed with high fat diet and ginsenoside F2 (FIG. 4)
[3] = system: mouse fed with high fat diet; assay: Improvement in insulin sensitivity: blood glucose after glucose and insulin administration; assay type: in vivo; details: vs control group (FIG. 3)
Description: An eleven-week-old mouse was administered with glucose and insulin and the blood glucose level was monitored in a time-dependent manner.

hepatic stellate cells = assay: Expression of endocannabinoid synthase in hepatic stellate cells treated with TNF-α; assay type: cell-based; details: hepatic stellate cells after TNF-α; 10 μM, 20 μM, and 30 μM; 24 hours (FIG. 5)
Description: After treating hepatic stellate cells with TNF-α, they were treated with ginsenoside F2 at concentrations of 10 μM, 20 μM, and 30 μM, and cultured for 24 hours. As a result of examining the difference in expression levels in the cultured hepatic stellate cells, it was confirmed that ginsenoside F2 inhibits the expression of DAGLα and DAGLβ, which are enzymes important for the synthesis of 2-AG, a kind of endocannabinoids, and that ginsenoside F2 inhibits the expression of NAPE-PLD and FAAH, which are factors associated with liver damage (FIG. 5).

glioblastoma = details: xenograft model in SD rats; Shin J Y et al. 2012; cited from earlier work
[4] = system: adipogenesis in the liver (SREBP1c, FAS, CB1R, NAPE-PLD); assay: Analysis of liver tissues of high fat diet-fed mice (H&E, Oil-red O staining, triglyceride, protein and gene expression); assay type: in vivo, mouse
Description: Hematoxylin and Eosin (H&E) staining was performed for the observation of the changes in the liver tissues, and the triglycerides in hepatocytes were stained via Oil-red O staining, and the results are shown under ×100 magnification (FIG. 2A). As a result, it was confirmed again that the lipid accumulation in hepatocytes was reduced.

[5] = system: mouse model fed with high fat diet; assay: Effect of alleviating fatty liver in mouse model fed with high fat diet; assay type: in vivo; details: 50 mg/kg orally five days a week for 12 weeks
Description: The effect of ginsenoside F2 on alleviating fatty liver was confirmed using a mouse model fed with high fat diet. Eight-week-old male mouse (body weight; 25 g to 28 g) were orally fed with high fat diet and ginsenoside F2 (50 mg/kg) five days a week for a period of 12 weeks. […] From the results, it was confirmed that ginsenoside F2 has the effect of inhibiting fatty liver production in mice even when they were fed with high fat diet.

[6] = liver, high fat diet-fed mice (FIGS. 2C and 2D)

Q: With `CC(C)=CCC[C@](C)(O[C@@H]1O[C@H](CO)[C@@H](O)[C@H](O)[C@H]1O)[C@H]1CC[C@]2(C)[C@@H]1[C@H](O)C[C@@H]1[C@@]3(C)CC[C@H](O[C@@H]4O[C@H](CO)[C@@H](O)[C@H](O)[C@H]4O)C(C)(C)[C@@H]3CC[C@]12C` [ginsenoside F2] as the compound, how does the “anticancer effect in breast cancer” value [1] read?
A: anticancer effect

Q: What about the “expression of IL-1β” value [2] of the same compound?
A: inhibit

Q: What about the “expression of IL-6” value [2] of the same compound?
A: inhibit

Q: And the “expression of TNF-α” value [2]?
A: inhibit

Q: And the “blood glucose level with time” value [3]?
A: decrease

Q: What about the “expression of DAGLα” value (hepatic stellate cells) of the same compound?
A: inhibits

Q: And the “expression of DAGLβ” value (hepatic stellate cells)?
A: inhibits

Q: What about the “expression of FAAH” value (hepatic stellate cells) of the same compound?
A: inhibits

Q: And the “expression of NAPE-PLD” value (hepatic stellate cells)?
A: inhibits

Q: What about the “anticancer effect against glioblastoma” value (glioblastoma) of the same compound?
A: anticancer effect

Q: What about the “lipid accumulation in hepatocytes” value ([4]; H&E and Oil-red O staining, ×100 magnification (FIG. 2A)) of the same compound?
A: reduced

Q: What about the “triglyceride level in the liver” value ([4]; high fat diet-fed mice (FIG. 2B)) of the same compound?
A: lowered

Q: What about the “expression of CB1R gene” value [4, 6] of the same compound?
A: reduced

Q: And the “expression of FAS gene” value [4, 6]?
A: reduced

Q: What about the “expression of NAPE-PLD gene” value [4, 6] of the same compound?
A: reduced

Q: And the “expression of SREBP1c gene” value [4, 6]?
A: reduced

Q: And the “protein expression of FAS” value [4, 6]?
A: reduced

Q: And the “protein expression of SREBP1c” value [4, 6]?
A: reduced

Q: And the size of liver ([5]; vs control group (FIG. 1A))?
A: significant decrease

Q: What about the weight of liver ([5]; vs control group (FIG. 1B)) of the same compound?
A: significant decrease
